Experimental data taken from ChEMBL document CHEMBL1201862, “PubChem BioAssay data set” (2004).
Calls of active or inactive are those of the source.

Tests used:
[1] = Luminescence Cell-Based Dose Response HTS to Identify Inhibitors of 5'UTR Stem-Loop Driven Prion Protein mRNA Translation in H4 Neuroglioblastoma Cells. [Related pubchem assays: 1827 (Project Summary), 1813 (Primary HTS)]; assay type: functional
[2] = alpha-synuclein stem-loop luciferase translation blockers – H4 neuroglioma cells, luminescence, confirmation (AID 1988); assay type: functional, cell-based
[3] = A549 cell cytotoxicity, dose response, cytotoxicity control, plate reader, cherry-pick, antagonist series (AID 743412); assay type: functional, cell-based
[4] = toxicity toward HepG2 liver cells – cell-based, plate reader, cherry-pick, antagonist series, cytotoxicity control, dose response (AID 743416); assay type: functional
[5] = blockers of bursicon-stimulated LGR2 cAMP reporter – cell-based, HEK293, CRE-luciferase reporter, cherry pick, set 2, dose response (AID 743343); assay type: functional;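 further: transfected cells were stimulated with diluted bursicon conditioned medium after compound addition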
[6] = blockade of melanocortin 4 receptor signaling – cell-based, plate reader, cherry pick, counter-screen for LGR2 antagonist project, dose response (AID 743444); assay type: functional;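 further: transfected HEK 293 cells stimulated with alpha-MSH peptide; potency of inhibitors of the alpha-MSH evoked signal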
[7] = viability of PTEN-deleted HCT116 cells – cell-based, HCT116 PTEN knockout, dose response (AID 1047); assay type: functional;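 further: HCT116 colon tumor cells with PTEN knocked out; cells exposed to compound for 60 hours before readout; potency for loss of cell viability measured by luminescence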
[8] = viability of HCT116 lacking mutant beta-catenin – cell-based, human colon tumor, dose response (AID 1045); assay type: functional;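 further: HCT116 colon tumor cells with beta catenin knocked out; cells exposed to compound for 60 hours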
[9] = blockers of HIV-1 envelope-mediated cell-cell fusion – cherry-pick, dose response (AID 652057); assay type: functional, cell-based
[10] = blockers of HIV-1 ZM109 envelope-driven cell-cell fusion – HeLa effector, CEM target cells, luciferase, cherry-pick, dose response (AID 652058); assay type: functional, cell-based;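 further: luciferase signal from HIV-1 Env mediated cell-cell fusion of effector and target cells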
[11] = off-target signal loss in HeLa-CEM21 co-culture – HeLa F-luc CTL cells, cherry-picked, counter-screen for HIV-1 Env fusion inhibitor project, dose response (AID 652040); assay type: functional, cell-based;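 further: potency for signal decrease marking cytotoxic or nonspecific inhibition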
[12] = HIV-1 AD8 envelope cell-cell fusion blockers – cherry-pick, dose response (AID 652062); assay type: functional, cell-based;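 further: luciferase signal from cell-cell fusion driven by HIV-1 clade B AD8 Env; potency is for inhibitors of fusion seen as a drop in luminescence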
Melanocortin receptor 4 = Melanocortin receptor 4 (Homo sapiens, UniProt P32245); assay type: functional, cell-based;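 further: Cell-based assay with luminescence read-out, confirmatory dose-response testing for agonist activity of biased ligands at MC4R; human U2OS cells with tagged receptor and beta-arrestin; potency of agonists that increase receptor coupling to beta-arrestin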
[13] = Trypanosoma cruzi growth suppression in host cells – NIH3T3 host cells, beta-gal luminescence, confirmation (AID 2044); assay type: functional, cell-based;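 further: intracellular parasites grown in NIH/3T3 mouse fibroblasts as host cells; luminescent beta-galactosidase reporter signal from transgenic T. cruzi replicating inside host cells; inhibitors lower the luminescence signal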
[14] = NIH3T3 cell viability loss – ATP luminescence, mouse fibroblasts, counter-screen, dose response (AID 2010); assay type: functional, cell-based;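 further: cells exposed to compound for about 90 hours before reading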
[15] = molecular target: T1, Ubiquitin-conjugating enzyme E2 N (Homo sapiens, UniProt P61088); assay type: functional;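 further: Dose-response confirmation in a TR-FRET assay detecting UBC13-driven polyubiquitin chain formation, inhibition measured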
T1 sequence (P61088 whole entry): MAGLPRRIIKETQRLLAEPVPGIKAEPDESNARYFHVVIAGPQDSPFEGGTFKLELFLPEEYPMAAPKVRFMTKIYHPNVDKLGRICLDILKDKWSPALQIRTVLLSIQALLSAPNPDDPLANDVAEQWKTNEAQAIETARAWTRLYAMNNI

Insulin-degrading enzyme [16] = molecular target: T2, Insulin-degrading enzyme (Homo sapiens, UniProt P14735); experiment: recombinant IDE activation, cell-free – biochemical, fluorescence polarization, counter-screen for IDE activator project, dose response (AID 588681)
T2 sequence (P14735 whole entry): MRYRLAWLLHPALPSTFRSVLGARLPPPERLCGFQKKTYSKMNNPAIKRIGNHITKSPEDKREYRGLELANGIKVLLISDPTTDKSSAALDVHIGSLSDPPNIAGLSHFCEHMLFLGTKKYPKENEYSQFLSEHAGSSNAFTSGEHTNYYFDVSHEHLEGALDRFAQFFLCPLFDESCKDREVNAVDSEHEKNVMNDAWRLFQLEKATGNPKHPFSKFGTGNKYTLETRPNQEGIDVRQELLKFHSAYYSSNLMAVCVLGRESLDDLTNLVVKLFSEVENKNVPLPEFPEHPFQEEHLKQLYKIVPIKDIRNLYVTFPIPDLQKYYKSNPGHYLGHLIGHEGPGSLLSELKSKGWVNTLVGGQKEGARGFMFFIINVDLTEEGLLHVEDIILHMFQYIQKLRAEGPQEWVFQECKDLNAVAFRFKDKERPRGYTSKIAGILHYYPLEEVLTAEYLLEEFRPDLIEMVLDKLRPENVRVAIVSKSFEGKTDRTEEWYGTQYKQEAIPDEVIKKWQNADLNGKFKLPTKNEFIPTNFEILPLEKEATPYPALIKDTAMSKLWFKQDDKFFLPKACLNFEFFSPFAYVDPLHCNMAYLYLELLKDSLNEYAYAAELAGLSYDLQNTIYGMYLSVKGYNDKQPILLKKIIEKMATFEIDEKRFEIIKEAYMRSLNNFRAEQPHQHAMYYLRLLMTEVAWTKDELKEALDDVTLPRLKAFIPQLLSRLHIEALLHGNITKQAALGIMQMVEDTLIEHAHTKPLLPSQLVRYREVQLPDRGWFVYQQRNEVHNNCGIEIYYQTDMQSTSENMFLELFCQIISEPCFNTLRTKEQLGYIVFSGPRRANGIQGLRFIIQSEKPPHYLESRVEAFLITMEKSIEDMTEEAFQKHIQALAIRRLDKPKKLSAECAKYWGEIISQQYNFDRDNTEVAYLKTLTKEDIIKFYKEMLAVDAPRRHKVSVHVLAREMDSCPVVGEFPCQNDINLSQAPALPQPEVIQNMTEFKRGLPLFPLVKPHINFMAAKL

Insulin-degrading enzyme [17] = molecular target: T2, Insulin-degrading enzyme; experiment: cellular IDE activation of Abeta substrate cleavage – fluorescence polarization, HEK cells, dose response (AID 588439); assay type: functional, cell-based
HEK293 [18] = experiment: membrane integrity loss in HEK cells – cell-based, fluorescence, cytotoxicity control for IDE activator project, dose response (AID 588440); assay type: functional; details: Homo sapiens;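 further: cytotoxicity by LDH release measuring loss of membrane integrity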
HEK293 [19] = experiment: optical interference in Abeta FP readout, dose response, artefact control for IDE activator project, biochemical, fluorescence polarization (AID 588442); assay type: functional, cell-based; details: Homo sapiens
Estrogen receptor beta = Estrogen receptor beta (Homo sapiens, UniProt Q92731);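 further: recombinant ER-beta bound to coactivator SRC1 peptide in presence of estradiol agonist; inhibitors block coactivator peptide binding and lower the FRET signal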
Cytochrome P450 1A2 = molecular target: T3, Cytochrome P450 1A2 (Homo sapiens, UniProt P05177);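 further: PubChem cytochrome P450 panel assay, CYP1A2 panel member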
T3 sequence (P05177 whole entry): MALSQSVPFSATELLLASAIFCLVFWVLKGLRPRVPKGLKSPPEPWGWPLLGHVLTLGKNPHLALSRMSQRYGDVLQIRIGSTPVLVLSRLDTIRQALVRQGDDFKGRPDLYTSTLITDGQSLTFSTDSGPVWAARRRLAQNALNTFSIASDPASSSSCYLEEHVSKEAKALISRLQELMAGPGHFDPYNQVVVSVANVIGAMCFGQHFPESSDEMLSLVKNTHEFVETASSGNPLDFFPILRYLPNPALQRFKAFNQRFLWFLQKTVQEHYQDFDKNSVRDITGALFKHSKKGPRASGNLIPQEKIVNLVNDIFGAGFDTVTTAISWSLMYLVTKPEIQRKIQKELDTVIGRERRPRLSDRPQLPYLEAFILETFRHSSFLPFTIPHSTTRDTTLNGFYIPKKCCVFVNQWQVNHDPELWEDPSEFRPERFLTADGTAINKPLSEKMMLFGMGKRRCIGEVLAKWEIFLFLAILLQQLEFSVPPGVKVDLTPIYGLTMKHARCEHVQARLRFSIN

[20] = molecular target: T4, Hepatocyte nuclear factor 4-alpha (Homo sapiens, UniProt P41235); assay type: functional, cell-based;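 further: biochemical luminescence-based dose-response counterscreen measuring inhibition of HNF4 dimerization, run alongside a screen for blockers of ABHD5–perilipin-5 interaction; split luciferase complementation of HNF4 fusion proteins in cell lysate measuring dimerization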
T4 sequence (P41235 whole entry): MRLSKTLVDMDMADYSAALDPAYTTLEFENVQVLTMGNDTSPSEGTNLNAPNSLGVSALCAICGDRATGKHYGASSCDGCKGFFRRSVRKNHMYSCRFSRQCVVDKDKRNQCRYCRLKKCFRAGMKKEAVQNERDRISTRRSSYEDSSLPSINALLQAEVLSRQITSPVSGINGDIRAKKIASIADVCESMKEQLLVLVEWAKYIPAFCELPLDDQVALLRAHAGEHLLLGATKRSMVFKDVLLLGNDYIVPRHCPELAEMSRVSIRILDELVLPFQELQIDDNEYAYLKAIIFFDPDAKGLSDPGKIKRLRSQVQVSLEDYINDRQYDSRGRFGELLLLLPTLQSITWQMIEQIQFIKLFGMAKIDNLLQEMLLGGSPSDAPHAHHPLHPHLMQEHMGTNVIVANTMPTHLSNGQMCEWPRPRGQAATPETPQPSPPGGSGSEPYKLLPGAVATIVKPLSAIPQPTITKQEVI

[21] = viability loss in HeLa cells – cytotoxicity control for MgcRacGAP inhibitor project, dose response (AID 624300); assay type: functional
[22] = molecular target: T5, Rac GTPase-activating protein 1 (Homo sapiens, UniProt Q9H0H5); experiment: blockers of MgcRacGAP-driven Rac1 GTP hydrolysis – biochemical, ADP Hunter fluorescence, primary and confirmatory, confirmation (AID 624330); assay type: functional
T5 sequence (Q9H0H5 whole entry): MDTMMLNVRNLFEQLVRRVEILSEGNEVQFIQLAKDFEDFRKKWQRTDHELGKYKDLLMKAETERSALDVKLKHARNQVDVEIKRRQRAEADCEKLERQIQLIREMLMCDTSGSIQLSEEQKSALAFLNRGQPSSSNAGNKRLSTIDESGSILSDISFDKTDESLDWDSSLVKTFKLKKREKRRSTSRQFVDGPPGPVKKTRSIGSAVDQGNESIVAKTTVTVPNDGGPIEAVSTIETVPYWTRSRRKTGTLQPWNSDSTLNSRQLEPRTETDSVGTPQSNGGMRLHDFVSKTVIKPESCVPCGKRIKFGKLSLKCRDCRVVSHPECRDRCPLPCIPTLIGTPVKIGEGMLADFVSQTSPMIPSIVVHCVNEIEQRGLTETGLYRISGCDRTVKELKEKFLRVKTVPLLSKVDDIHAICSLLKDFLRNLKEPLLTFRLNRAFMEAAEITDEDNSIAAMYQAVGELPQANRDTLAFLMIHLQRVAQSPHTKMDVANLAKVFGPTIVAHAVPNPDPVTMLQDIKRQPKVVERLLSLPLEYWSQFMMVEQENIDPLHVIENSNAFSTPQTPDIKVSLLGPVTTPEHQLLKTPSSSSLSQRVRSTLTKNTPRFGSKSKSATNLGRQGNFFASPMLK

Chain of Melanocortin receptor 4 (P32245 whole entry): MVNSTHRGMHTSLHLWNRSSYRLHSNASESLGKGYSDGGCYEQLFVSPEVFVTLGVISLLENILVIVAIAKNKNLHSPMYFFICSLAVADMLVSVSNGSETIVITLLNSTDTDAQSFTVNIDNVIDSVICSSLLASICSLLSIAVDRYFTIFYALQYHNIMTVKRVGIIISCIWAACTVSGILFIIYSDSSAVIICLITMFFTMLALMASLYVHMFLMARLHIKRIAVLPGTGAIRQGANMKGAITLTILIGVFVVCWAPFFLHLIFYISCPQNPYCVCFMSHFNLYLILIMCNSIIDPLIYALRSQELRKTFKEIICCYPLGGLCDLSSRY
Chain of Estrogen receptor beta (Q92731 whole entry): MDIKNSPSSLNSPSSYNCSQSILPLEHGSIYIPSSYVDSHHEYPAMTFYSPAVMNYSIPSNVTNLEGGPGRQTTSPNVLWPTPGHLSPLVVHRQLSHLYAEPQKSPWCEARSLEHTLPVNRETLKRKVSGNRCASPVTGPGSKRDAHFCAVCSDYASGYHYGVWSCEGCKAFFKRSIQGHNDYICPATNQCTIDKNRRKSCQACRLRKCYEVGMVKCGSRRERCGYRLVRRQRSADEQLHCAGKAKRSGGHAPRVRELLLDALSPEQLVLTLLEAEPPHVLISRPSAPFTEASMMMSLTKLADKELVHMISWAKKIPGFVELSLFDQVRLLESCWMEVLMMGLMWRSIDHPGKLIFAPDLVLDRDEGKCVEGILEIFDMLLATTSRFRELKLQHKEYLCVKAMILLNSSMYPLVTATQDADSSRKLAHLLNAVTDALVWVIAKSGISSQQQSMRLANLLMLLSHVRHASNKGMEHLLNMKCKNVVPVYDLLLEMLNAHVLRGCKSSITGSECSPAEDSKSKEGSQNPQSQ

Cc1ccc(NC(=O)c2ccc3c(c2)OCCO3)cc1C
EC50 [1]: 5.06 µM (active)
EC50 [2]: 3.68 µM (active)
AC50 [3]: > 52 µM (inactive)
AC50 [4]: > 52 µM (inactive)
AC50 [5]: 5.65 µM (active)
AC50 [6]: 7.61 µM (active)

Cc1ccc2cc(C#N)c(SCc3nnc(-c4ccccc4[N+](=O)[O-])o3)nc2c1
EC50 [7]: 3.33 µM (active)
EC50 [8]: 4.3 µM (active)

Sc1ncc(-c2ccccc2)n1-c1cccc(Cl)c1
AC50 [9]: 11.7 µM (active)
AC50 [10]: 16.1 µM (active)
AC50 [11]: 17.1 µM (active)
AC50 [12]: 21.3 µM (active)

O=C(CCN1C(=O)/C(=C/C=C/c2ccccc2)SC1=S)Nc1cccnc1
EC50 (Melanocortin receptor 4): > 89.2 µM (inactive)

CCN1CCN(CCNC(=O)c2ccc(/C=C3/Sc4ccccc4N(Cc4cccc(C)c4)C3=O)cc2)CC1
EC50 [13]: 1.29 µM (active)
EC50 [14]: 8.45 µM (active)
IC50 [15]: > 20 µM (inactive)
EC50 (Insulin-degrading enzyme [16]): > 54.7 µM (inactive)
EC50 (Insulin-degrading enzyme [17]): 23.2 µM (inactive)
IC50 (HEK293 [18]): 20.2 µM (inactive)
EC50 (HEK293 [19]): > 54.7 µM (inactive)

Cc1ccccc1NC(=O)Cn1cnc2c1c(=O)n(C)c(=O)n2C
IC50 (Estrogen receptor beta): > 50 µM (not active)
AC50 (Cytochrome P450 1A2): 15.8 µM (inconclusive)

CC(C)c1ccc(N2C=Nc3ccc(C(C)C)cc3C2)cc1
IC50 [20]: 22.5 µM (inactive)

COc1cc(-c2nc3ccc(C)cn3c2Nc2ccc3c(c2)OCCO3)ccc1O
CC50 [21]: 100 µM (active)
IC50 [22]: 34.2 µM (active)
